Measurements reported in ChEMBL document CHEMBL1149508, “From arylureas to biarylamides to aminoquinazolines: discovery of a novel, potent TRPV1 antagonist” (Bioorg Med Chem Lett, 2006).
≈ marks a conversion by molar mass, not a printed value. Calls of active or inactive are those of the source. The rule behind the calls is not given here.

What was measured:
[1] = biological target: T1, Transient receptor potential cation channel subfamily V member 1 (Homo sapiens, UniProt Q8NER1); assay: Antagonist activity against capsaicin-activated human VR1 by FLIPR assay; type: functional
[2] = biological target: Transient receptor potential cation channel subfamily V member 1 (Rattus norvegicus, UniProt O35433); assay: Antagonist activity against low pH(5.0-5.5)-activated rat VR1; type: functional
[3] = biological target: T1, Transient receptor potential cation channel subfamily V member 1; assay: Agonist activity at human VR1 expressed in HEK293 cells upto 4 uM; type: functional, cell-based
[4] = Volume of distribution in rat at 3 mg/kg, iv; type: ADME, organism-based; parameters: dose 3 mg/kg, route intravenous; conditions: in vivo, read-out: Vdss
[5] = Tmax in rat at 3 mg/kg, iv; type: ADME, organism-based; parameters: dose 3 mg/kg, route intravenous; conditions: in vivo
[6] = Half life in rat at 3 mg/kg, iv; type: ADME, organism-based; parameters: dose 3 mg/kg, route intravenous; conditions: in vivo
[7] = Bioavailability in rat at 3 mg/kg, iv; type: ADME, organism-based; conditions: in vivo
[8] = Clearance in rat at 3 mg/kg, iv; type: ADME, organism-based; parameters: dose 3 mg/kg, route intravenous; conditions: in vivo
[9] = Aqueous solubility at pH 7.4 by HTsol assay; type: physicochemical; conditions: buffer

T1 sequence (Q8NER1 whole entry): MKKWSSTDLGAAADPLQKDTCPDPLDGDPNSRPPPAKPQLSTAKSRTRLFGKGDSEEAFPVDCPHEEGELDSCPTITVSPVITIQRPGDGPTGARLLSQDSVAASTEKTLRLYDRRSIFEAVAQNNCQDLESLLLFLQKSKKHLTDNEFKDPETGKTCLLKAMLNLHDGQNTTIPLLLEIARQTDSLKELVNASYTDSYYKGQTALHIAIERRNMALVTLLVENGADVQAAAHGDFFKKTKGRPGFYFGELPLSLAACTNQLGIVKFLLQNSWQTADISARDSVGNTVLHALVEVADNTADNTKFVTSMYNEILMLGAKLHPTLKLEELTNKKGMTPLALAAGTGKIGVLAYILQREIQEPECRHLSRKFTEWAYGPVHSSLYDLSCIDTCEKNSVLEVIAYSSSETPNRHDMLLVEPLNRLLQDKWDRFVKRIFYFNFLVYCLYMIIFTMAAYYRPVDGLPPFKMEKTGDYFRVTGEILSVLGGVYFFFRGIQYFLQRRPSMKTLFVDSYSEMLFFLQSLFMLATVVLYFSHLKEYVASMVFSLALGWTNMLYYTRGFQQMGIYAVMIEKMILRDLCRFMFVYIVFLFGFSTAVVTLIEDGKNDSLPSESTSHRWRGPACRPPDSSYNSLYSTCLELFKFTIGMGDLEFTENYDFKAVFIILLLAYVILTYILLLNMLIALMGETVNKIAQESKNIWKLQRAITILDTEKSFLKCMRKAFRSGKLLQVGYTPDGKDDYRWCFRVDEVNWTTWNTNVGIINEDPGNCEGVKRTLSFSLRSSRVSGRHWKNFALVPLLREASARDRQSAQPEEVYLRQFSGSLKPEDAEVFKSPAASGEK
Chain of Transient receptor potential cation channel subfamily V member 1 (Rattus norvegicus, UniProt O35433) (O35433 whole entry): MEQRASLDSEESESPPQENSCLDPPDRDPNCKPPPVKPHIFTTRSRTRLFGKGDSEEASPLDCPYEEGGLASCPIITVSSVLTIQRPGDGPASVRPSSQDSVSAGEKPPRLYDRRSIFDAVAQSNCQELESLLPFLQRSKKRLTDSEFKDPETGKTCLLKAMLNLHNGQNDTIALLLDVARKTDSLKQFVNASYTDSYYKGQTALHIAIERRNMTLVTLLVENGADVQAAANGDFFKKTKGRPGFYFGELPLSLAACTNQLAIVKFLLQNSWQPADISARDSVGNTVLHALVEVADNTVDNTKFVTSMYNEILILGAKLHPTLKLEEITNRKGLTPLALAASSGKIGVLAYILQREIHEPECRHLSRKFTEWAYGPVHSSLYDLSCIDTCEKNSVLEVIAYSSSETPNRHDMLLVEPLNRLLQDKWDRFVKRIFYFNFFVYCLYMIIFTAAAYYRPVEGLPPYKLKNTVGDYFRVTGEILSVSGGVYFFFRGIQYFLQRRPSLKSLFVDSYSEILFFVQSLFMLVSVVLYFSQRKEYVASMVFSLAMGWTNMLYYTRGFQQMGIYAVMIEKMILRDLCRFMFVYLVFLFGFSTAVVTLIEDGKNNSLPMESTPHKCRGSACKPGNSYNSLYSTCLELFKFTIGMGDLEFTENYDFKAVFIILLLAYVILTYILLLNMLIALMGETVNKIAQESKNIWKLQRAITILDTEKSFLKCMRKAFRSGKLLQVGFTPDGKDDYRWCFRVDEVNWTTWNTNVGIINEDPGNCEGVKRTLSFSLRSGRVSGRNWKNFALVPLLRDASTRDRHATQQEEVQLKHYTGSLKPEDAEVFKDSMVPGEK

Row | Compound | IC50 [1] | IC50 [2] | also measured
1 | CC(C)(C)c1ccc(NC(=O)c2ccc(-c3ncccc3[N+](=O)[O-])cc2)cc1 | 5 nM | 5 nM | 
2 | Cc1cccnc1-c1ccc(C(=O)Nc2ccc(C(F)(F)F)cc2)cn1 | 624 nM | 583 nM | 
3 | Cc1cccnc1-c1ccc(C(=O)Nc2ccc(Cl)cc2)cc1 | 1500 nM | 2020 nM | 
4 | Cc1cccnc1-c1ccc(C(=O)Nc2ccc(F)cc2)cc1 | > 4000 nM | > 4000 nM | 
5 | CC(C)(C)c1ccc(NC(=O)c2ccc(-c3ncccc3-c3ncc[nH]3)cc2)cc1 | 3670 nM | 694 nM | 
6 | CC(C)(C)c1ccc(NC(=O)c2ccc(-c3ncccc3-c3nnco3)cc2)cc1 | 91 nM | 59 nM | 
7 | O=C(Nc1ccc(C(F)(F)F)cc1)c1ccc(-c2ncccc2C(F)(F)F)cc1 |  | 26 nM | Activity [3]: inactive
8 | Cc1nc(-c2ncccc2C(F)(F)F)ccc1C(=O)Nc1ccc(C(F)(F)F)cc1 | 259 nM | 263 nM | 
9 | Cc1cccnc1-c1ccc(C(=O)Nc2ccc(C(C)C)cc2)cc1 | 73 nM | 43 nM | 
10 | N#Cc1ccc(NC(=O)c2ccc(-c3ncccc3C(F)(F)F)cc2)cc1 | 417 nM | 1300 nM | 
11 | Cc1ccc(NC(=O)c2ccc(-c3ncccc3C)cc2)cc1 | 2580 nM | > 4000 nM | 
12 | Cc1cc(C(=O)Nc2ccc(C(F)(F)F)cc2)ccc1-c1ncccc1C | 233 nM | 190 nM | 
13 | CC(C)(C)c1ccc(NC(=O)c2ccc(-c3ncccc3NS(=O)(=O)Cc3ccccc3)cc2)cc1 | 377 nM | 159 nM | 
14 | Nc1cc(-c2ncccc2C(F)(F)F)ccc1C(=O)Nc1ccc(C(F)(F)F)cc1 | 93 nM | 103 nM | 
15 | Cc1cccnc1-c1ccc(C(=O)Nc2ccc(OC(F)(F)F)cc2)cc1 | 974 nM | 896 nM | 
16 | Cc1cccnc1-c1ccc(C(=O)Nc2ccc(C(C)(C)C)cc2)cc1 |  | 9 nM | 
17 | CC(=O)Nc1cccnc1-c1ccc(C(=O)Nc2ccc(C(C)(C)C)cc2)cc1 | 1110 nM | 290 nM | 
18 | CC(C)(C)c1ccc(NC(=O)c2ccc(-c3ncccc3CO)cc2)cc1 | 168 nM | 88 nM | 
19 | Cc1cccnc1-c1ccc(C(=O)Nc2ccccn2)cc1 | > 4000 nM | > 4000 nM | 
20 | CS(=O)(=O)Nc1cc(-c2ncccc2C(F)(F)F)ccc1C(=O)Nc1ccc(C(F)(F)F)cc1 | 1020 nM | 722 nM | 
21 | Cc1cc(C(=O)Nc2ccc(C(F)(F)F)cc2)ccc1-c1ncccc1C(F)(F)F | 257 nM | 192 nM | 

Row | Compound | IC50 [1] | IC50 [2] | also measured
22 | CC(C)(C)c1ccc(NC(=O)c2ccc(-c3ncccc3C#N)cc2)cc1 | 30 nM | 13 nM | 
23 | CC(C)(C)c1ccc(NC(=O)c2ccc(-c3ncccc3NO)cc2)cc1 | 49 nM | 5 nM | 
24 | Cc1cccnc1-c1ccc(C(=O)Nc2ccc(C(F)(F)F)cc2)cc1 | 65 nM | 81 nM | 
25 | FC(F)(F)c1ccc(Nc2ncnc3cc(-c4ncccc4C(F)(F)F)ccc23)cc1 [NGD-8243] |  | 1.4 nM | Vd [4]: 12.5 L/kg; Tmax [5]: 0.7 h; Activity [3]: inactive; half-life [6]: 8.1 h; bioavailability [7]: 99%; clearance [8]: 23 mL/min/kg
26 | Cc1nnc(-c2cccnc2-c2ccc(C(=O)Nc3ccc(C(C)(C)C)cc3)cc2)o1 | 387 nM | 34 nM | 
27 | Cc1cccnc1-c1ccc(C(=O)Nc2ccc(C(F)(F)F)cc2)nc1 | 1780 nM | 1580 nM | 
28 | CC(C)(C)c1ccc(NC(=O)c2ccc(-c3ncccc3NS(C)(=O)=O)cc2)cc1 | 152 nM | 35 nM | 
29 | CC(C)(C)c1ccc(NC(=O)c2ccc(-c3ncccc3F)cc2)cc1 | 3 nM | 1 nM | 
30 | CC(C)(C)c1ccc(NC(=O)c2ccc(-c3ncccc3-c3nnn[nH]3)cc2)cc1 | > 4000 nM | > 4000 nM | 
31 | CN(C)Cc1cccnc1-c1ccc(C(=O)Nc2ccc(C(C)(C)C)cc2)cc1 | 746 nM | 234 nM | solubility [9]: 50 µg/mL (≈ 129 µM)
32 | CC(C)(C)c1ccc(NC(=O)c2ccc(-c3ncccc3C(=O)O)cc2)cc1 | > 4000 nM | 560 nM | solubility [9]: 104 µg/mL (≈ 278 µM)
33 | O=C(Nc1ccc(C(F)(F)F)cc1)c1ccc(-c2ncccc2C(F)(F)F)cc1O | 43 nM | 36 nM | 
34 | CN(c1cccnc1-c1ccc(C(=O)Nc2ccc(C(C)(C)C)cc2)cc1)S(C)(=O)=O | 39 nM | 9 nM | solubility [9]: 1 µg/mL (≈ 2.29 µM)
35 | O=C(Nc1ccccc1)c1ccc(-c2ncccc2C(F)(F)F)cc1 | > 4000 nM |  | 
36 | CC(C)(C)c1ccc(NC(=O)c2ccc(-c3ncccc3N(S(C)(=O)=O)S(C)(=O)=O)cc2)cc1 | 0.8 nM | 0.4 nM | solubility [9]: 1 µg/mL (≈ 1.99 µM)
37 | CC(C)(C)c1ccc(NC(=O)c2ccc(-c3ncccc3C(=N)N)cc2)cc1 | > 4000 nM | > 4000 nM | 
38 | CCCNc1cccnc1-c1ccc(C(=O)Nc2ccc(C(C)(C)C)cc2)cc1 | 158 nM | 37 nM | 
39 | CCN(CC)Cc1cccnc1-c1ccc(C(=O)Nc2ccc(C(C)(C)C)cc2)cc1 | 1410 nM | 334 nM | 
40 | CCCNCc1cccnc1-c1ccc(C(=O)Nc2ccc(C(C)(C)C)cc2)cc1 | 4300 nM | 639 nM | 
41 | Cc1cccnc1-c1ccc(C(=O)Nc2ccc(Br)cc2)cc1 | 189 nM | 366 nM | 
42 | CC(C)(C)c1ccc(NC(=O)c2ccc(-c3ncccc3CN3CCCC3)cc2)cc1 | 1530 nM | 196 nM | 

Row | Compound | IC50 [1] | IC50 [2] | also measured
43 | O=C(Nc1ccc(C(F)(F)F)cc1)c1ccc(-c2ncccc2C(F)(F)F)cc1[N+](=O)[O-] | 392 nM | 222 nM | 
44 | CC(C)(C)c1ccc(NC(=O)c2ccc(-c3ncccc3Cl)cc2)cc1 | 8 nM | 2 nM | 
45 | O=C(Nc1ccc(C(F)(F)F)cc1)c1ccc(-c2ncccc2Cl)cc1 | 58 nM |  | 
46 | Cc1cc(-c2ncccc2C)ccc1C(=O)Nc1ccc(C(F)(F)F)cc1 | > 4000 nM | > 4000 nM | 
47 | CCS(=O)(=O)Nc1cccnc1-c1ccc(C(=O)Nc2ccc(C(C)(C)C)cc2)cc1 | 49 nM | 4 nM | solubility [9]: 1 µg/mL (≈ 2.29 µM)
48 | CC(C)(C)c1ccc(NC(=O)c2ccc(-c3ccccn3)cc2)cc1 | 11 nM | 8 nM | 
49 | O=C(Nc1ccc(C(F)(F)F)cc1)c1ncc(-c2ncccc2C(F)(F)F)cn1 | 42 nM | 60 nM | 
50 | O=C(Nc1ccc(C(F)(F)F)cc1)c1ccc(-c2ncccc2C(F)(F)F)nc1 | 60 nM | 56 nM | 
51 | O=C(Nc1ccc(C(F)(F)F)cc1)c1ccc(-c2ncccc2C(F)(F)F)cc1Cl | > 4000 nM | 2400 nM | 
52 | CC(C)(C)c1ccc(NC(=O)c2ccc(-c3ncccc3N)cc2)cc1 | 123 nM | 325 nM | 
53 | CS(=O)(=O)N(c1cc(-c2ncccc2C(F)(F)F)ccc1C(=O)Nc1ccc(C(F)(F)F)cc1)S(C)(=O)=O | > 4000 nM | > 4000 nM | 
54 | CC(C)(C)c1ccc(NC(=O)c2ccc(-c3ncccc3NS(=O)(=O)c3ccccc3)cc2)cc1 | 91 nM | 166 nM | solubility [9]: 1 µg/mL (≈ 2.06 µM)
55 | O=C(Nc1ccc(C(F)(F)F)cc1)c1ccc(-c2ncccc2C(F)(F)F)cc1F | 131 nM | 348 nM | 
56 | O=C(Nc1ccc(C(F)(F)F)cc1)c1ccc(-c2ncccc2C(F)(F)F)nc1O | > 4000 nM | 764 nM | 
57 | COc1ccc(NC(=O)c2ccc(-c3ncccc3C)cc2)cc1 | > 4000 nM | > 4000 nM | 
58 | O=C(Nc1ccc(C(F)(F)F)cn1)c1ccc(-c2ncccc2C(F)(F)F)cc1 | 24 nM | 65 nM | 
59 | COc1cc(-c2ncccc2C(F)(F)F)ccc1C(=O)Nc1ccc(C(F)(F)F)cc1 | > 4000 nM | 1040 nM | 
60 | CCCCS(=O)(=O)Nc1cccnc1-c1ccc(C(=O)Nc2ccc(C(C)(C)C)cc2)cc1 | 162 nM | 141 nM | 
61 | CCCOc1cccnc1-c1ccc(C(=O)Nc2ccc(C(C)(C)C)cc2)cc1 | 62 nM | 20 nM | 
62 | CC(C)(C)c1ccc(NC(=O)c2ccc(-c3ncccc3NC3CCCC3)cc2)cc1 | 190 nM | 44 nM | 
